For assay [1], the system named is HT29 colon adenocarcinoma xenografts. The experiment in a line: antitumor response against HT29 colon adenocarcinoma xenografts in mice. In kind it is in vivo, human. The protocol:
[…] where 1 represents length; w--width; and h--height. Tumor sizes were monitored 2 times/week until the median volume (V=0.4(a^2 ×b) where a is the smaller of the two perpendicular tumor diameters). As an indication of drug toxicity, animal weights were also recorded at the time of tumor volume measurement. Statistical analyses were performed on mouse tumor size and weight parameters by using the Mann-Whitney test.
Tumor growth suppression was measured by plotting the mean tumor volume versus the number of days post-inoculation with polyamine analog (growth curve analyses). Suppression is determined by comparison with the growth of untreated tumors (%T/C). More specifically,: %T/C is (treated tumor volume minus pretreatment volume) divided by (control tumor volume minus pretreatment volume)×100. Typically this is measured either when the control tumor volume reaches 1000 mm^3, or at the last day of treatment.
Tumor regression is measured as a percentage representing the average percentage of decrease in tumor volume from the largest pretreatment volume value.
Repression of regrowth is represented as regrowth delay, determined as the number of days following cessation of treatment when median group tumor volume exceeds 200 mm^3 (an arbitrary indication of regrowth which was determined statistically).
Cells from malignant solid human tumor tissue types, other than melanoma, have also been evaluated for their responsiveness to polyamine analog treatment including clonal cell lines A121 (human ovarian adenocarcinoma),A549 (lung adenocarcinoma), and HT29 colon adenocarcinoma). These cell lines were evaluated for the level of SSAT induction and potency of antitumor response following BENSPM treatment (80 mg/kg 3×/day×6 days) in-vivo using the methodology previously described in this embodiment. Also, dose of BENSPM was compared (80 mg/kg versus 40 mg/kg). The baseline of SSAT activity in the control mice (2 of 7 mice) ranged from 40 to 90 pmol/min/mg. Tumor cells from the human xenografts A121, A549, and HT29 were removed from two mice of each treated group of seven mice containing the respective xenograft at 16 hours following the final BENSPM injection to evaluate the level of induction of SSAT activity. […] The response to the polyamine analog was heterotypic. […] As discussed previously, it is not known whether the heterotypic antitumor response may be due to either the individual properties of the clonal line or the particular solid tumor type.
A general note: A xenograft is tissue or cells of one species grown in another, often human tumour cells in immunodeficient mice.

Assay [2] concerns polyamine pools of melanoma tumor. The experiment in a line: polyamine pools in human melanoma xenografts in-vivo. The settings on record: for polyamine pools: 16 hours after final injection.
[3] abbreviates: HT29, BENSPM 80 mg/kg 3x/d × 6d.
Where [4] appears, read: MALME-3 tumor, 40 mg/kg 3x/day 6 days, 16 hrs post-treatment.
Setting [5] is: MALME-3 tumor, 40 mg/kg, 2 wks post-treatment.

“And” between values parts separate entries of the source, which are not always exact repeats. Identical values can stand only once.

As for `CCNCCCNCCCNCCCNCC` [BENSPM, N^1,N^11 -bis(ethyl)norspermine], in assay [1] (setting [3]), the “% T/C at 1 g” value is recorded as 24%; the “Tumor Regression” value was “no measurable tumor regression and None”. The “Regrowth Delay” value in assay [1] (HT29, BENSPM 80 mg/kg 3x/d × 6d, dt 3.5 days) was “None”. Also, the “No Regrowth” value in assay [1] (HT29, BENSPM 80 mg/kg 3x/d × 6d, for duration of experiment) was “two of five mice examined showed no regrowth and 2/5”. The growth rate result in assay [1] (HT29 xenograft, 80 mg/kg 3×/day×6 days) was “reduced growth rate”. In assay [2] (setting [4]), the PUT pool was 20/20, the SPD pool was 50/20 and the SPM pool was 40/30. In assay [2] (setting [5]), the N-acetylspermidine level is recorded as 240/180, the PUT pool is on record as 370/290, the SPD pool is 560/160 and the SPM pool is given as 200/80. Moreover, the polyamine pools result in assay [2] (MALME-3 tumor) was “almost totally depleted”. Also, the polyamine pools entry in assay [2] (PANUT-3 tumor) is “almost totally depleted”.

The values above are taken from patent US5498522A, “Methods for the use of spermidine/spermine N^1 -acetyltransferase as a prognostic indicator and/or a tumor response marker” (priority 1993, dated 1996).
